Target: T1, Halobacterium salinarum bacterio-rhodopsin (Halobacterium salinarum, UniProt P02945)
T1 construct: purchased SIGMA
T1 sequence (P02945 14-262): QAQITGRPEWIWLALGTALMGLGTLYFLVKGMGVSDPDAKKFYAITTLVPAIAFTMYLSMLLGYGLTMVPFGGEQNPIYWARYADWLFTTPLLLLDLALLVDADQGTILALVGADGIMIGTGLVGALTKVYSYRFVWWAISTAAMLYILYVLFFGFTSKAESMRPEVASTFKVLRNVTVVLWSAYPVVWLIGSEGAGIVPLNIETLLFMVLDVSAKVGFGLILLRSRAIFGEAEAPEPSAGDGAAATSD
Test: Photomarking of bacteriorhodopsin (covalent bridging after UV irradiation, fluorescence detected on gel)
Assay type: biochemical
Conditions: compound in DPC micelles (1:50 molar), protein-compound molar ratio 1:5, 1 hour in darkness at 4° C., 45 s UV irradiation, gel read on Fluorimager with rhodamine filter
Experimental: • Reagents: • Dodecylphosphocholine (DPC) and Halobacterium salinarum bacterio-rhodopsin are from SIGMA. Egg yolk phosphatidylcholine (PC) and cholesterol (chol, 99% pure) are from Avanti Polar Lipids (Alabaster, USA). • Preparation of the Liposomes: • PC, chol and the lipid tool (12a-c) (molar ratio 65:30:5) dissolved in chloroform are mixed in a test tube. After evaporation of the solvent with heat (45 mins at 37° C.), the dry film is hydrated by adding 300 μl of PBS at pH 7.4 in order to obtain a final concentration of lipids of 5 mM. The mixture is stirred and the resulting suspension is heated to 37° C., and then cooled in liquid nitrogen 5 times, and then passed through an extruder equipped with two 100 nm filters (35 passages). • Fluorescence Spectroscopy: • The excitation and emission spectra of the probe compounds according to the invention, within liposomes are recorded at 32° C. on a TECAN Infinite M1000 spectrofluorimeter. The lipid composition of the liposomes is PC:chol:lipid-tool 65:30:5 (molar ratio). The <> control liposomes consist of PC:chol, and their residual fluorescence is subtracted from the measured fluorescence spectra. • Photomarking of Bacteriorhodopsin: • DPC is added to a compound as a solution in chloroform-methanol (2/1, v/v) in the compound/detergent proportion of 1:50 molar. After evaporation in a high vacuum for 2 hours, the dry lipid film is hydrated by adding 50 μL of distilled water and 50 μl of Tris-HCl pH 8.0. The bacterio-rhodopsin resuspended in distilled water, is incubated with the compounds according to invention in detergent micelles, in a protein-compound molar ratio of 1:5. […] After migration, the gel is first analyzed on a Fluorimager Typhoon 8600 equipped with a rhodamine filter, in order to detect fluorescence; the gel is then colored with Coomassie blue for viewing all the protein bands. […]

| Structure (SMILES) | Intensity of the photomarking signal (arbitrary units - AU) [AU] |
| --- | --- |
| CCCCCCc1ccc(C(=O)c2ccc(CCCCCC(=O)O)cc2)cc1 [1a, 6-(4-(4-n-hexylbenzoyl)phenyl)hexanoic acid] | 5 |
| CCCCCCCCCCc1ccc(C(=O)c2ccc(CC(=O)O)cc2)cc1 [1c, (4-(4-decylbenzoyl)phenyl)ethanoic acid] | 1 |
| Cc1ccc(C(=O)c2ccc(CCCCCCCCCCC(=O)O)cc2)cc1 [1b] | 10 |

Reference: US9234848B2, “Compounds having chromophore and photoreactive groups” (CENTRE NATIONAL DE LA RECHERCHE SCIENTIFIQUE (C.N.R.S.), priority 2011, dated 2016)
